Results reported in US10364323B2, “Method for producing polyether carbonate polyols” (priority 2015, dated 2019).

Assay: physchem
From the text: The pKa in the context of the process according to the invention is to be understood as meaning the negative decadic logarithm of the first dissociation constant of the carboxylic acid at a temperature of 25 degrees Celsius. […] The pKa of the carboxylic acid may be measured by determining the pH at the half-equivalence point. To this end, an aqueous solution of the carboxylic acid is titrated against sodium hydroxide solution of a defined concentration and in each case the pH of the solution is measured using a calibrated combination pH electrode. […] According to the Henderson-Hasselbalch equation at the half-equivalence point the pKa corresponds to the measured pH because the acid and its corresponding base are present in equal concentration. Carboxylic acids having an insufficient solubility in water are titrated in methanolic solution (pKLy=16.7) or ethanolic solution (pKLy=19.1), wherein pKLy is defined as follows for non-aqueous media.
[formula] […] Chem., 1985, Vol. 57, No. 6, pp. 865-876.

O=C(O)C(=O)O [Oxalic acid]
pKa: 1.46

O=C(O)CCCCCC(=O)O [Pimelic acid]
pKa: 4.71
